This test has as its target T1, JAK2 (JH1 domain-catalytic, Y1007F,Y1008F) kinase (Homo sapiens, UniProt O60674, Y1007F/Y1008F).
T1 construct: made in house; host or cells: transiently transfected HEK293 cells
In words: JAK2 Binding Assay (JAK2 JH1 Domain Binding Assay). The note with it: JAK2 JH1 domain binding, qPCR detection; read-out: JAK2 Kd. For orientation: Quantitative PCR measures a nucleic acid by following its amplification.
T1 sequence (O60674 849-1124 Y1007F/Y1008F limits assumed): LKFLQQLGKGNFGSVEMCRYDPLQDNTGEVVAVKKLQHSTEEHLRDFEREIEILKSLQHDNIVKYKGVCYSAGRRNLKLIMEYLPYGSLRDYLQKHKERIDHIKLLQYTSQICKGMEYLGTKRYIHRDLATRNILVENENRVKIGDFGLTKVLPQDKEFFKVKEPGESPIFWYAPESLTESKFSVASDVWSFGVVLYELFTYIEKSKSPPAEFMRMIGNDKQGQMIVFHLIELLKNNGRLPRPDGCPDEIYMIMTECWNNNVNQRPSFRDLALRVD
In the case of `Cn1c(Nc2cc3n(n2)CCCC3(F)F)nc2ncc(Oc3ccnc(NC(=O)N4CCOCC4)c3)c(C#N)c21` [Example I-25, N-(4-((7-cyano-2-((4,4-difluoro-4,5,6,7-tetrahydropyrazolo[1,5-a]pyridin-2-yl)amino)-1-methyl-1H-imidazo[4,5-b]pyridin-6-yl)oxy)pyridin-2-yl)morpholine-4-carboxamide], the equilibrium dissociation constant (Kd) (in general, the constant that tells how readily two partners part at equilibrium) was in the range of 10 to 50 nM.
In the case of `CNC(=O)Nc1cc(Oc2cnc3nc(Nc4cc5n(n4)CCCC5(F)F)n(C)c3c2C#N)ccn1` [Example I-27, 1-(4-((7-cyano-2-((4,4-difluoro-4,5,6,7-tetrahydropyrazolo[1,5-a]pyridin-2-yl)amino)-1-methyl-1H-imidazo[4,5-b]pyridin-6-yl)oxy)pyridin-2-yl)-3-methylurea], the dissociation constant Kd is less than 10 nM.
Take `Cn1c(Nc2cc3n(n2)CCCC3(F)F)nc2ncc(Oc3ccnc(NC(=O)N4CC[C@@H](O)C4)c3)c(C#N)c21` [Example I-28, (R)-N-(4-((7-cyano-2-((4,4-difluoro-4,5,6,7-tetrahydropyrazolo[1,5-c]pyridin-2-yl)amino)-1-methyl-1H-imidazo[4,5-b]pyridin-6-yl)oxy)pyridin-2-yl)-3-hydroxypyrrolidine-1-carboxamide]: the Kd was less than 10 nM.
`Cn1c(Nc2cc3n(n2)CCCC3(F)F)nc2ncc(Oc3ccnc(NC(=O)N4CC[C@H](O)C4)c3)c(C#N)c21` [Example I-29, (S)-N-(4-((7-cyano-2-((4,4-difluoro-4,5,6,7-tetrahydropyrazolo[1,5-a]pyridin-2-yl)amino)-1-methyl-1H-imidazo[4,5-b]pyridin-6-yl)oxy)pyridin-2-yl)-3-hydroxypyrrolidine-1-carboxamide]: the dissociation constant Kd was 10 to 50 nM.
With `COC(=O)Nc1cc(Oc2cnc3nc(Nc4cc(C(F)(F)F)n(C5CC6(COC6)C5)n4)n(C)c3c2C#N)ccn1` [Example I-31, Methyl(4-((2-((1-(2-oxaspiro[3.3]heptan-6-yl)-5-(trifluoromethyl)-1H-pyrazol-3-yl)amino)-7-cyano-1-methyl-1H-imidazo[4,5-b]pyridin-6-yl)oxy)pyridin-2-yl)carbamate], the Kd was in the range of 10 to 50 nM.
On to `COCCOC(=O)Nc1cc(Oc2cnc3nc(Nc4cc5n(n4)CCCC5(F)F)n(C)c3c2C#N)ccn1` [Example I-32, 2-Methoxyethyl(4-((7-cyano-2-((4,4-difluoro-4,5,6,7-tetrahydropyrazolo[1,5-a]pyridin-2-yl)amino)-1-methyl-1H-imidazo[4,5-b]pyridin-6-yl)oxy)pyridin-2-yl)carbamate], for which the dissociation constant Kd was less than 10 nM.
As for `CO[C@@H]1CCN(C(=O)Nc2cc(Oc3cnc4nc(Nc5cc6n(n5)CCCC6(F)F)n(C)c4c3C#N)ccn2)C1` [Example I-33], the figure is less than 10 nM.
As for `CO[C@H]1CCN(C(=O)Nc2cc(Oc3cnc4nc(Nc5cc6n(n5)CCCC6(F)F)n(C)c4c3C#N)ccn2)C1` [Example I-34, (S)-N-(4-((7-cyano-2-((4,4-difluoro-4,5,6,7-tetrahydropyrazolo[1,5-a]pyridin-2-yl)amino)-1-methyl-1H-imidazo[4,5-b]pyridin-6-yl)oxy)pyridin-2-yl)-3-methoxypyrrolidine-1-carboxamide], the figure is less than 10 nM; as for `Cn1c(Nc2cc3n(n2)CCCC3(F)F)nc2ncc(Oc3ccnc(NC(=O)N4CC(O)C4)c3)c(C#N)c21` [Example I-35, N-(4-((7-cyano-2-((4,4-difluoro-4,5,6,7-tetrahydropyrazolo[1,5-a]pyridin-2-yl)amino)-1-methyl-1H-imidazo[4,5-b]pyridin-6-yl)oxy)pyridin-2-yl)-3-hydroxyazetidine-1-carboxamide], less than 10 nM; as for `Cn1c(Nc2cc3n(n2)CCCC3(F)F)nc2ncc(Oc3ccnc(NC(=O)O[C@H]4CCOC4)c3)c(C#N)c21` [Example I-36, (S)-tetrahydrofuran-3-yl(4-((7-cyano-2-((4,4-difluoro-4,5,6,7-tetrahydropyrazolo[1,5-a]pyridin-2-yl)amino)-1-methyl-1H-imidazo[4,5-b]pyridinyl)oxy)pyridin-2-yl)carbamate], less than 10 nM.
`Cn1c(Nc2cc3n(n2)CCCC3(F)F)nc2ncc(Oc3ccnc(NC(=O)O[C@@H]4CCOC4)c3)c(C#N)c21` [Example I-37, (R)-tetrahydrofuran-3-yl(4-((7-cyano-2-((4,4-difluoro-4,5,6,7-tetrahydropyrazolo[1,5-a]pyridin-2-yl)amino)-1-methyl-1H-imidazo[4,5-b]pyridin-6-yl)oxy)pyridin-2-yl)carbamate]: the equilibrium dissociation constant (Kd) is less than 10 nM.
In the case of `CN(C)CCOC(=O)Nc1cc(Oc2cnc3nc(Nc4cc5n(n4)CCCC5(F)F)n(C)c3c2C#N)ccn1` [Example I-38, 2-(Dimethylamino)ethyl(4-((7-cyano-2-((4,4-difluoro-4,5,6,7-tetrahydropyrazolo[1,5-a]pyridin-2-yl)amino)-1-methyl-1H-imidazo[4,5-b]pyridin-6-yl)oxy)pyridin-2-yl)carbamate], the Kd is less than 10 nM.
As to `CN1CC(OC(=O)Nc2cc(Oc3cnc4nc(Nc5cc(C(F)(F)F)cn(C)c5=O)n(C)c4c3C#N)ccn2)C1` [Example I-39, 1-Methylazetidin-3-yl(4-((7-cyano-1-methyl-2-((1-methyl-2-oxo-5-(trifluoromethyl)-1,2-dihydropyridin-3-yl)amino)-1H-imidazo[4,5-b]pyridin-6-yl)oxy)pyridin-2-yl)carbamate], the dissociation constant Kd lay in the range of 50 to 1000 nM.
Next, `COC(=O)Nc1cc(Oc2cnc3nc(Nc4cc5n(n4)CCN(C)C5=O)n(C)c3c2Cl)ccn1` [Example I-40, Methyl(4-((7-chloro-1-methyl-2-((5-methyl-4-oxo-4,5,6,7-tetrahydropyrazolo[1,5-a]pyrazin-2-yl)amino)-1H-imidazo[4,5-b]pyridin-6-yl)oxy)pyridin-2-yl)carbamate]: 1000 to 5000 nM; `COC(=O)Nc1cc(Oc2cnc3nc(Nc4cc5n(n4)CCN(C)C5=O)n(C)c3c2C#N)ccn1` [Example I-41, Methyl(4-((7-cyano-1-methyl-2-((5-methyl-4-oxo-4,5,6,7-tetrahydropyrazolo[1,5-a]pyrazin-2-yl)amino)-1H-imidazo[4,5-b]pyridin-6-yl)oxy)pyridin-2-yl)carbamate]: 50 to 1000 nM; `Cn1cc(C(F)(F)F)cc(Nc2nc3ncc(Oc4ccnc(NC(=O)NC5CC5)c4)c(C#N)c3n2C)c1=O` [Example I-42, 1-(4-((7-cyano-1-methyl-2-((1-methyl-2-oxo-5-(trifluoromethyl)-1,2-dihydropyridin-3-yl)amino)-1H-imidazo[4,5-b]pyridin-6-yl)oxy)pyridin-2-yl)-3-cyclopropylurea]: less than 10 nM.
In the case of `COC(=O)Nc1cc(Oc2cnc3nc(Nc4cc5n(n4)CCOC5(C)C)n(C)c3c2C#N)ccn1` [Example I-43, Methyl(4-((7-cyano-2-((4,4-dimethyl-6,7-dihydro-4H-pyrazolo[5,1-c][1,4]oxazin-2-yl)amino)-1-methyl-1H-imidazo[4,5-b]pyridin-6-yl)oxy)pyridin-2-yl)carbamate], the Kd is less than 10 nM.
As to `CN(C)C(=O)Nc1cc(Oc2cnc3nc(Nc4cc5n(n4)CCOC5(C)C)n(C)c3c2C#N)ccn1` [Example I-44, 3-(4-((7-cyano-2-((4,4-dimethyl-6,7-dihydro-4H-pyrazolo[5,1-c][1,4]oxazin-2-yl)amino)-1-methyl-1H-imidazo[4,5-b]pyridin-6-yl)oxy)pyridin-2-yl)-1,1-dimethylurea], the dissociation constant (Kd) was less than 10 nM.
For `Cn1c(Nc2cc3n(n2)CCOC3(C)C)nc2ncc(Oc3ccnc(NC(=O)N4CCCC4)c3)c(C#N)c21` [Example I-45, N-(4-((7-cyano-2-((4,4-dimethyl-6,7-dihydro-4H-pyrazolo[5,1-c][1,4]oxazin-2-yl)amino)-1-methyl-1H-imidazo[4,5-b]pyridin-6-yl)oxy)pyridin-2-yl)pyrrolidine-1-carboxamide], the Kd is less than 10 nM.
Regarding `CN(C)C(=O)Nc1cc(Oc2cnc3nc(Nc4cc5n(n4)CCN(C)C5=O)n(C)c3c2Cl)ccn1` [Example I-46, 3-(4-((7-chloro-1-methyl-2-((5-methyl-4-oxo-4,5,6,7-tetrahydropyrazolo[1,5-a]pyrazin-2-yl)amino)-1H-imidazo[4,5-b]pyridin-6-yl)oxy)pyridin-2-yl)-1,1-dimethylurea], the dissociation constant Kd was greater than 5000 nM.
As for `Cn1c(Nc2cc3n(n2)CCOC3(C)C)nc2ncc(Oc3ccnc(NC(=O)N4CCC4)c3)c(C#N)c21` [Example I-47, N-(4-((7-cyano-2-((4,4-dimethyl-6,7-dihydro-4H-pyrazolo[5,1-c][1,4]oxazin-2-yl)amino)-1-methyl-1H-imidazo[4,5-b]pyridin-6-yl)oxy)pyridin-2-yl)azetidine-1-carboxamide], the figure is less than 10 nM; as for `Cn1c(Nc2cc3n(n2)CCOC3(C)C)nc2ncc(Oc3ccnc(NC(=O)O[C@H]4CCOC4)c3)c(C#N)c21` [Example I-49, (S)-Tetrahydrofuran-3-yl(4-((7-cyano-2-((4,4-dimethyl-6,7-dihydro-4H-pyrazolo[5,1-c][1,4]oxazin-2-yl)amino)-1-methyl-1H-imidazo[4,5-b]pyridin-6-yl)oxy)pyridin-2-yl)carbamate], less than 10 nM.
On to `[2H]C([2H])([2H])N(C(=O)Nc1cc(Oc2cnc3nc(Nc4cc(C(F)(F)F)cn(C)c4=O)n(C)c3c2C#N)ccn1)C([2H])([2H])[2H]` [Example I-52, 3-(4-((7-cyano-1-methyl-2-((1-methyl-2-oxo-5-(trifluoromethyl)-1,2-dihydropyridin-3-yl)amino)-1H-imidazo[4,5-b]pyridin-6-yl)oxy)pyridin-2-yl)-1,1-bis(methyl-d3)urea], for which the Kd was less than 10 nM.
Next, `CN1CCn2nc(Nc3nc4ncc(Oc5ccnc(NC(=O)O[C@@H]6CCOC6)c5)c(Cl)c4n3C)cc2C1=O` [Example I-53, (R)-tetrahydrofuran-3-yl(4-((7-chloro-1-methyl-2-((5-methyl-4-oxo-4,5,6,7-tetrahydropyrazolo[1,5-a]pyrazin-2-yl)amino)-1H-imidazo[4,5-b]pyridin-6-yl)oxy)pyridin-2-yl)carbamate]: greater than 5000 nM; `CN1CCn2nc(Nc3nc4ncc(Oc5ccnc(NC(=O)OC6COC6)c5)c(Cl)c4n3C)cc2C1=O` [Example I-54, oxetan-3-yl(4-((7-chloro-1-methyl-2-((5-methyl-4-oxo-4,5,6,7-tetrahydropyrazolo[1,5-a]pyrazin-2-yl)amino)-1H-imidazo[4,5-b]pyridin-6-yl)oxy)pyridin-2-yl)carbamate]: 1000 to 5000 nM.

Source of the values: patent US11970494B2, “6-heteroaryloxy benzimidazoles and azabenzimidazoles as JAK2 inhibitors” (Ajax Therapeutics, Inc., priority 2021, dated 2024).
